{
  "source": "paper PMC4264749",
  "about": "“Phlebotomy Treatment for Elimination of Perfluoroalkyl Acids in a Highly Exposed Family: A Retrospective Case-Series” (PLoS ONE, 2014)",
  "origin": "cited, not measured here",
  "details": "cited from earlier work",
  "data": [
    {"substance": "cholestyramine", "values": [
      {"measurement": "facilitating removal / elimination of PFAAs", "value": "successful"},
      {"measurement": "PFOA levels in users compared to non-users", "setting": "individuals using it for other medical reasons, West Virginia drinking water contamination", "value": "significantly lower"}
    ]}
  ]
}
